Results as given in ChEMBL document CHEMBL4619753, “Treating Cancer by Spindle Assembly Checkpoint Abrogation: Discovery of Two Clinical Candidates, BAY 1161909 and BAY 1217389, Targeting MPS1 Kinase” (J Med Chem, 2020).

What was measured:
[1] = Dose normalized AUC in Wistar rat at 0.2 to 1 mg/kg, po measured up to 24 hrs by HPLC-MS-MS analysis; format: ADME, organism-based; conditions: in vivo
HeLa = test: cells; conditions: Homo sapiens, 96 h
Description: Antiproliferative activity against human HeLa cells after 96 hrs by crystal violet staining based assay

[2] = Oral bioavailability in Wistar rat at 0.2 to 1 mg/kg measured up to 24 hrs by HPLC-MS-MS analysis; format: ADME, organism-based; conditions: in vivo
[3] = Volume of distribution at steady state in Beagle dog at 0.1 to 0.5 mg/kg administered as iv infusion measured up to 24 hrs by HPLC-MS-MS analysis; format: ADME, organism-based, Canis lupus familiaris; conditions: in vivo, read-out: Vdss
[4] = Volume of distribution at steady state in Wistar rat at 0.1 to 0.5 mg/kg, iv administered as bolus dose measured up to 24 hrs by HPLC-MS-MS analysis; format: ADME, organism-based; conditions: in vivo; for Vd: Wistar, read-out: Vdss
[5] = Dose normalized AUC in Beagle dog at 0.2 to 1 mg/kg, po measured up to 24 hrs by HPLC-MS-MS analysis; format: ADME, organism-based, Canis lupus familiaris; conditions: in vivo
[6] = Oral bioavailability in Beagle dog at 0.2 to 1 mg/kg measured up to 24 hrs by HPLC-MS-MS analysis; format: ADME, organism-based, Canis lupus familiaris; conditions: in vivo
[7] = Half life in Beagle dog at 0.1 to 0.5 mg/kg, administered as iv infusion measured up to 24 hrs by HPLC-MS-MS analysis; format: ADME, organism-based, Canis lupus familiaris; conditions: in vivo
[8] = Half life in Wistar rat at 0.1 to 0.5 mg/kg, iv administered as bolus dose measured up to 24 hrs by HPLC-MS-MS analysis; format: ADME, organism-based; conditions: in vivo; for half-life: Wistar
[9] = Blood clearance in Beagle dog at 0.1 to 0.5 mg/kg administered as iv infusion measured up to 24 hrs by HPLC-MS-MS analysis; format: ADME, organism-based, Canis lupus familiaris
[10] = Blood clearance in Wistar rat at 0.1 to 0.5 mg/kg, iv administered as bolus dose measured up to 24 hrs by HPLC-MS-MS analysis; format: ADME, organism-based
[11] = Aqueous solubility of the compound; format: physicochemical; conditions: buffer
[12] = Lipophilicity, LogD of compound at pH 7.5 by reverse phase HPLC analysis; format: physicochemical; conditions: buffer
HT-29 = test: cells; conditions: Homo sapiens, HT-29, 96 h
Description: Antiproliferative activity against human HT-29 cells after 96 hrs by crystal violet staining based assay

SMILES | IC50 (HeLa) | bioavailability [2] | AUC/dose [1] | other results
CC(C)CNc1nccn2c(-c3ccc(C(=O)NC4CC4)cc3)cnc12 |  |  |  | AUC/dose ([1]; BLD = below limit of detection): Bld
CC(C)CNc1cc(-c2ccccc2)cc2c1ncn2-c1ccc(C(=O)NC2CC2)cc1 | 2480 nM |  |  | 
COc1cc(S(C)(=O)=O)ccc1Nc1nc2ccc(-c3ccc(NC(=O)Cc4ccc(F)cc4)cc3)cn2n1 | 246 nM | 49% | 0.98 kg·h/L | 
COc1cc(C(=O)N2CC3(COC3)C2)ccc1Nc1nc2ccc(-c3ccc(NC(=O)Cc4ccc(F)cc4)cc3)cn2n1 | 85 nM |  | 0.049 kg·h/L | 
COc1cc(S(C)(=O)=O)ccc1Nc1nc2ccc(-c3ccc(NC(=O)[C@@H](C)c4ccc(F)cc4)cc3)cn2n1 | 7000 nM |  |  | 
CC(C)CNc1nc(-c2ccccc2)nn2c(-c3ccc(C(=O)NC4CC4)cc3)cnc12 | > 10000 nM |  |  | 
Cc1cc(-c2cnc3c(NCCC(F)(F)F)cc(C4(c5cc(F)ccc5O)CC4)nn23)ccc1C(=O)NC1CC1 |  | 45% | 0.76 kg·h/L | Vd [3]: 2.1 L/kg; Vd [4]: 3.1 L/kg; AUC/dose [5]: 1.1 kg·h/L; bioavailability [6]: 81%; half-life [7]: 2.1 h; half-life [8]: 4.7 h; clearance [9]: 21.7 mL/min/kg; clearance [10]: 14.2 mL/min/kg
CC(C)CNc1cc(-c2ccccc2)nn2c(-c3ccc(C(=O)NC4CC4)cc3)cnc12 | 1550 nM |  |  | 
O=C(Cc1ccc(F)cc1)Nc1ccc(-c2ccc3nc(Nc4ccc(C(=O)N5CCOCC5)cc4)nn3c2)cc1 | 725 nM |  |  | 
CNC(=O)Nc1ccc(-c2cnc3c(NCC(C)C)nccn23)cc1 |  | 94% | 4.9 kg·h/L | 
COc1cc(C(=O)N2CC(F)C2)ccc1Nc1nc2ccc(-c3ccc(NC(=O)[C@H](C)c4ccc(F)cc4)cc3)cn2n1 | 57 nM | 55% | 1.8 kg·h/L | Vd [3]: 5.2 L/kg; Vd [4]: 2.1 L/kg; AUC/dose [5]: 0.64 kg·h/L; bioavailability [6]: 39%; half-life [7]: 7 h; half-life [8]: 5.3 h; clearance [9]: 9.83 mL/min/kg; clearance [10]: 5.17 mL/min/kg
COc1cc(N2CCOC2=O)ccc1Nc1nc2ccc(-c3ccc(NC(=O)[C@H](C)c4ccc(F)cc4)cc3)cn2n1 | 270 nM | 49% | 4.2 kg·h/L | Vdss ([4]; 24 h): 1.4 L/kg; t1/2 ([8]; 24 h): 8 h
CCC(C(=O)Nc1ccc(-c2ccc3nc(Nc4ccc(S(C)(=O)=O)cc4OC)nn3c2)cc1)c1ccc(F)cc1 (racemic) | 7500 nM |  |  | 
COc1ccc(Oc2cc(NCCC(F)(F)F)c3ncc(-c4ccc(C(=O)NC5CC5)c(C)c4)n3n2)c(F)c1F [BAY-1217389] |  | 72% | 2.4 kg·h/L | Vd [3]: 3.9 L/kg; Vd [4]: 2.2 L/kg; AUC/dose [5]: 2.5 kg·h/L; bioavailability [6]: 71%; half-life [7]: 13 h; half-life [8]: 7.8 h
Cc1cc(-c2cnn3c(NC[C@H]4C[C@@](C)(O)C4)cc(Oc4cccnc4)nc23)ccc1C(=O)NC1CC1 [LUVIXASERTIB] |  |  |  | IC50 (HT-29): 557 nM

The next lines start with results.

IC50 (HeLa) | bioavailability [2] | AUC/dose [1] | SMILES | other results
> 10000 nM |  |  | CC(C)CNc1cccc2c1ncn2-c1ccc(C(=O)NC2CC2)cc1 | 
695 nM | 12% | 0.084 kg·h/L | N#Cc1ccccc1Nc1nc2ccc(-c3ccc(NC(=O)Cc4ccccc4)cc3)cn2n1 | 
 | 33% | 0.47 kg·h/L | C=C(c1ccc(OC)c(F)c1)c1cc(NCCC(F)(F)F)c2ncc(-c3ccc(C(=O)NC4CC4)c(C)c3)n2n1 | Vd [3]: 2.6 L/kg; Vd [4]: 2.1 L/kg; AUC/dose [5]: 0.005 kg·h/L; bioavailability [6]: 1.4%; half-life [7]: 0.84 h; half-life [8]: 3.1 h; clearance [9]: 56.7 mL/min/kg; clearance [10]: 14.5 mL/min/kg
266 nM | 6.6% | 0.066 kg·h/L | N#Cc1ccccc1Nc1nc2ccc(-c3ccc(NC(=O)Cc4ccc(F)cc4)cc3)cn2n1 | 
50 nM | 17% | 0.23 kg·h/L | COc1cc(C(=O)N2C[C@@H]3C[C@H]2CO3)ccc1Nc1nc2ccc(-c3ccc(NC(=O)Cc4ccc(F)cc4)cc3)cn2n1 | 
140 nM | 20% | 0.81 kg·h/L | COc1cc(C(=O)N2CCOCC2)ccc1Nc1nc2ccc(-c3ccc(NC(=O)Cc4ccc(F)cc4)cc3)cn2n1 | 
7730 nM |  |  | CC(C)CNc1nc(-c2ccccc2)cc2c(-c3ccc(C(=O)NC4CC4)cc3)cnn12 | 
> 10000 nM |  |  | COc1cc(S(C)(=O)=O)ccc1Nc1nc2ccc(-c3ccc(NC(=O)C4(c5ccc(F)cc5)CC4)cc3)cn2n1 | 
26 nM |  |  | O=C(Cc1ccc(F)cc1)Nc1ccc(-c2ccc3nc(Nc4ccc(C(=O)N5CCOCC5)cc4OCC(F)(F)F)nn3c2)cc1 | solubility [11]: Insoluble; chromatographic logD [12]: 3.9
200 nM |  |  | COc1cc(C(=O)N(C)C)ccc1Nc1nc2ccc(-c3ccc(NC(=O)Cc4ccc(F)cc4)cc3)cn2n1 | 
2300 nM | 9% | 0.066 kg·h/L | COc1ccccc1Nc1nc2ccc(-c3ccc(NC(=O)Cc4ccccc4)cc3)cn2n1 | 
120 nM | 52% | 1.9 kg·h/L | COc1cc(N2CCOC2=O)ccc1Nc1nc2ccc(-c3ccc(NC(=O)Cc4ccc(F)cc4)cc3)cn2n1 | 
5900 nM |  |  | COc1ccccc1Nc1nc2ccc(-c3cc(C)c(O)c(C)c3)cn2n1 | 
37 nM |  |  | COc1cc(C(=O)N2CC(F)C2)ccc1Nc1nc2ccc(-c3ccc(NC(=O)Cc4ccc(F)cc4)cc3)cn2n1 | 
 | 20% | 0.22 kg·h/L | Cc1cc(-c2cnc3c(NCC(C)C)nccn23)ccc1C(=O)NC1CC1 | 
260 nM | 49% | 3.3 kg·h/L | COc1cc(S(C)(=O)=O)ccc1Nc1nc2ccc(-c3ccc(NC(=O)[C@H](C)c4ccc(F)cc4)cc3)cn2n1 [BAY-1161909] | Vd [3]: 6.7 L/kg; Vd [4]: 2.4 L/kg; AUC/dose [5]: 0.52 kg·h/L; bioavailability [6]: 63%; half-life [7]: 6.3 h; half-life [8]: 14 h; clearance [9]: 23.3 mL/min/kg; clearance [10]: 3.17 mL/min/kg
